Measured values as given in patent US5183828A, “Polyhydroxybenzoic acid derivatives” (priority 1990, dated 1993).

Assays:
[1] = test system: superoxide (xanthine oxidase reaction or human leukocytes); test: effect on superoxide generation in vitro; format: biochemical
Description: The rate of production of superoxide from the xanthine oxidase reaction or from human leukocytes activated with phorbol myristate acetate was measured spectrophotometrically as the superoxide dismutase (SOD)-inhibitable portion of the reduction of ferricytochrome c or nitroblue tetrazolium (NBT). All assays were carried out at 37° C., pH 7.1. For the superoxide production by the xanthine oxidase reaction, a concentration of 0.04 U/ml of xanthine oxidase was used with 0.1 mM xanthine as substrate. Absorbances were measured in the presence of 30 U/ml of SOD and in its absence. The indicators were either ferricytochrome c or NBT in a concentration of 20 uM. The initial rate of reduction of NBT was monitored at 530 nm and that of cytochrome c at 550 nm. Extinction coefficients were 21.4×10 ^3 /M cm for cytochrome c and 17.9×10^3 /M cm for NBT. The initial rate of production of superoxide from leukocytes was measured using a concentration of 20 uM ferricytochrome c or NBT as described above in the presence and absence of 30 U/ml of SOD.

isolated rabbit hearts = test: contractile function in isolated Langendorff rabbit heart after global ischemia and reperfusion, Table 9; parameters: species or system New Zealand white rabbits; details: 30 min global ischemia, 45 min reperfusion; bolus of 10 mM solution then 100 uM over first min; control 49 ± 9 (p<0.01)
From the text: The compounds of this invention, as represented by the above formula, are useful in treating ischemia reperfusion injury, presumably because of their free-radical scavenging ability. The following protocol illustrates this activity on the ischemia produced during treatment of coronary artery disease.
(§1) Female New Zealand white rabbits (2 kg) were heparinized and anesthetized and their hearts removed. The isolated rabbit hearts were perfused by the method of Langendorff at a constant pressure of 80 mm Hg with a Krebs-bicarbonate-buffered perfusate which was bubbled with 95% O2, 5 % CO2 gas. Chelex-treated perfusate was prepared by eluting the solution through a column of chelex 100 resin which was pre-equilibrated with 4 volumes of the perfusate solution. All perfusate solutions were routinely filtered through 0.8 um millipore filters prior to use. Heart rate and left ventricular developed pressure were measured using a fluid-filled balloon secured into the left ventrile. The balloon was connected to a Statham P23 DB pressure transducer via a hydraulic line and the transducer output amplified to a strip chart recorder. The ventricular volume was adjusted to achieve a left ventricular end disastolic pressure of 12 mmHg. During periods of global ischemia, the balloon was deflated and then reinflated 15 min after reflow. […]

[2] = test system: DMPO-OH and DMPO-R radical adducts in coronary effluent of reperfused rabbit hearts; test: EPR spin trapping (DMPO) on coronary effluent of reperfused rabbit hearts; parameters: species or system New Zealand white rabbits
Description: as §1, with “recorder.” for “recorder. The ventricular volume was adjusted to achieve a left ventricular end disastolic pressure of 12 mmHg. During periods of global ischemia, the balloon was deflated and then reinflated 15 min after reflow.”
EPR spectra were recorded in flat cells at room temperature with either Varian E-9 or Bruker-IBM ER 300 spectrometers operating at X-band using 100 kHz modulation frequency and with TE 104 or TM 110 cavities. The microwave frequency and magnetic field were precisely measured using a Hewlett Packard 5342A Microwave Frequency counter and Bruker ER 035M NMR Gaussmeter. […] Quantitation of the free radical signals was performed by comparing the double integral of the observed signal to that of a known concentration of the tempo free radical in aqueous solution. […]

SMILES: NC(=NO)c1cc(O)c(O)c(O)c1 [3,4,5-trihydroxybenzamidoxime]
- Cytochrome C Reduction ([1]; 10 uM compound): 4.73 nmol
- NBT Reduction ([1]; 10 uM compound): 5.35 nmol
- Cytochrome C Reduction ([1]; 20 uM compound): 4.56 nmol
- NBT Reduction ([1]; 20 uM compound): 5.06 nmol
- Cytochrome C Reduction ([1]; 50 uM compound): 5.38 nmol
- NBT Reduction ([1]; 50 uM compound): 2.55 nmol
- Cytochrome C Reduction ([1]; 100 uM compound): 6.06 nmol
- NBT Reduction ([1]; 100 uM compound): 1.14 nmol
- Cytochrome C Reduction ([1]; 200 uM compound): 6.50 nmol
- NBT Reduction ([1]; 200 uM compound): 0.81 nmol
- Cytochrome C Reduction ([1]; 300 uM compound): 6.25 nmol
- NBT Reduction ([1]; 300 uM compound): 0.71 nmol
- Cytochrome C Reduction ([1]; 500 uM compound): 5.81 nmol
- NBT Reduction ([1]; 500 uM compound): 0.87 nmol
- Left ventricular developed pressure (isolated rabbit hearts): 67±9 mm Hg
- DMPO-OH and DMPO-R EPR signals upon reperfusion ([2]; 40 mM DMPO, post-ischemic reperfusion with drug): not observed
- new radical EPR signal on reperfusion with drug ([2]; with or without DMPO): appears as a single broad peak centered at 3480 G
